Test results published in the kinase profiling compilation of Christmann-Franck et al. (2016).

Columns and labels:
Test in all cases: radiometric filter-binding kinase assay, Kinase HotSpot
Conditions in all cases: compound 0.5 µM; ATP 10 µM
ADRBK2 (human) = ADRBK2 (human) (UniProt P35626)
CAMK2A (human) = CAMK2A (human) (UniProt Q9UQM7)
CAMK2G (human) = CAMK2G (human) (UniProt Q13555)
CAMK4 (human) = CAMK4 (human) (UniProt Q16566)
CDC42BPB (human) = CDC42BPB (human) (UniProt Q9Y5S2)
CSNK1G2 (human) = CSNK1G2 (human) (UniProt P78368)
DYRK3 (human) = DYRK3 (human) (UniProt O43781)
EPHA2 (human) = EPHA2 (human) (UniProt P29317)
EPHA3 (human) = EPHA3 (human) (UniProt P29320)
EPHA8 (human) = EPHA8 (human) (UniProt P29322)
FGFR1 (human) = FGFR1 (human) (UniProt P11362)
FYN (human) = FYN (human) (UniProt P06241)
Chain of FYN (human) (P06241 whole entry, looked up): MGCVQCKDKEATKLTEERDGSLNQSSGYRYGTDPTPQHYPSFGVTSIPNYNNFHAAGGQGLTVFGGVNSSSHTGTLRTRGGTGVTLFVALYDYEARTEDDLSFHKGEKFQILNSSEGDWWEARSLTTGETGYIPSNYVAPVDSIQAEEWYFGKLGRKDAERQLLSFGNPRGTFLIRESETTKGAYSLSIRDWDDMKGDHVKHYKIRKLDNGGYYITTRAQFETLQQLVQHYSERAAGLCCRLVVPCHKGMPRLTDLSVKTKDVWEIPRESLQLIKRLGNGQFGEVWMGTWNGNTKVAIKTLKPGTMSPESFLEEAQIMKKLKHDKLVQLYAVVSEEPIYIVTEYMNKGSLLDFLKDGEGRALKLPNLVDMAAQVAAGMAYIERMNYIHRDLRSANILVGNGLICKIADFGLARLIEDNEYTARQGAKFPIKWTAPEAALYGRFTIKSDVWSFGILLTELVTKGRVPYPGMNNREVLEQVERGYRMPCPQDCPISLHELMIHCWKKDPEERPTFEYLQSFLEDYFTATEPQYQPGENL

HCK (human) = HCK (human) (UniProt P08631)
IKBKE (human) = IKBKE (human) (UniProt Q14164)
INSR (human) = INSR (human) (UniProt P06213)
MAP4K5 (human) = MAP4K5 (human) (UniProt Q9Y4K4)
MAPK9 (human) = MAPK9 (human) (UniProt P45984)
MARK1 (human) = MARK1 (human) (UniProt Q9P0L2)
MATK (human) = MATK (human) (UniProt P42679)
MET (human) = MET (human) (UniProt P08581)
MST4 (human) = MST4 (human) (UniProt Q9P289)
MUSK (human) = MUSK (human) (UniProt O15146)
NEK1 (human) = NEK1 (human) (UniProt Q96PY6)
NEK6 (human) = NEK6 (human) (UniProt Q9HC98)
Chain of NEK6 (human) (Q9HC98 whole entry, looked up): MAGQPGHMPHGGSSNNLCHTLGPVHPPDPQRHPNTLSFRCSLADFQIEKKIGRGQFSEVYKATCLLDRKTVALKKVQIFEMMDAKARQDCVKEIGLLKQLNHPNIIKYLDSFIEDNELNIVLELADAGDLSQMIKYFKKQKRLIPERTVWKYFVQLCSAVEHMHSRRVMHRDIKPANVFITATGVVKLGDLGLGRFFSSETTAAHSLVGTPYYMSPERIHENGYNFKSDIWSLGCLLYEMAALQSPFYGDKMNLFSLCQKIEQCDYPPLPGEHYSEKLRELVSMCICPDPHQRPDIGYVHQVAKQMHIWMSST

NEK7 (human) = NEK7 (human) (UniProt Q8TDX7)
Chain of NEK7 (human) (Q8TDX7 whole entry, looked up): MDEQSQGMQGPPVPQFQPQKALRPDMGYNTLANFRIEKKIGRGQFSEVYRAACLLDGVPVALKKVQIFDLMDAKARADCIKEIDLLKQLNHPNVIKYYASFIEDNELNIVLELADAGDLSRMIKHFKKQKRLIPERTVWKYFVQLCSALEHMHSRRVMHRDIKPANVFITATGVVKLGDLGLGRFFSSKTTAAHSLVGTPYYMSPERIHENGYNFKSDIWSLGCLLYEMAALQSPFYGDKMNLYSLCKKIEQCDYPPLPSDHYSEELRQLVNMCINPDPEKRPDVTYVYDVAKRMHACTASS

NTRK3 (human) = NTRK3 (human) (UniProt Q16288)
Chain of NTRK3 (human) (Q16288 whole entry, looked up): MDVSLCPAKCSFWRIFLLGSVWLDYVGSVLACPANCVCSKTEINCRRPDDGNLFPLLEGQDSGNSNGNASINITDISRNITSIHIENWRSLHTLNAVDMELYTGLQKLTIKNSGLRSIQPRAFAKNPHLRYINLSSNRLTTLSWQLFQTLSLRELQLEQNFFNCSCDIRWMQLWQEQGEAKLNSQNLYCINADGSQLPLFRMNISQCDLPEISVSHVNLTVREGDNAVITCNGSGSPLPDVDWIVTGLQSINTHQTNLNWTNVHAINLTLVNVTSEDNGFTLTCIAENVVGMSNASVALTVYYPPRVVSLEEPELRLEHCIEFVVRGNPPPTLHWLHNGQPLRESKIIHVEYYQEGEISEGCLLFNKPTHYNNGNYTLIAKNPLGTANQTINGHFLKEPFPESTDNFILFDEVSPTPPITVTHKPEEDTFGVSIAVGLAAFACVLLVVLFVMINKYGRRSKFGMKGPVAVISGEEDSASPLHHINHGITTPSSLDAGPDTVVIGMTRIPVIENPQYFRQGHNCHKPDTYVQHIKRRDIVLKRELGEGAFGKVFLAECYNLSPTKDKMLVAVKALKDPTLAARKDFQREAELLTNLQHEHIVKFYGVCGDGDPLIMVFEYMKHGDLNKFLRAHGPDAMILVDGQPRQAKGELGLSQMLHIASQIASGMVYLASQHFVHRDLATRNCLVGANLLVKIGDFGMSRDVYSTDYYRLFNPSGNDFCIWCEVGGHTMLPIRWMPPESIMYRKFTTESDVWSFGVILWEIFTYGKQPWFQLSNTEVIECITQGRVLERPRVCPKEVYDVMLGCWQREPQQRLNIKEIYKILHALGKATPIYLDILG

NUAK2 (human) = NUAK2 (human) (UniProt Q9H093)
OXSR1 (human) = OXSR1 (human) (UniProt O95747)
PAK2 (human) = PAK2 (human) (UniProt Q13177)
Chain of PAK2 (human) (Q13177 whole entry, looked up): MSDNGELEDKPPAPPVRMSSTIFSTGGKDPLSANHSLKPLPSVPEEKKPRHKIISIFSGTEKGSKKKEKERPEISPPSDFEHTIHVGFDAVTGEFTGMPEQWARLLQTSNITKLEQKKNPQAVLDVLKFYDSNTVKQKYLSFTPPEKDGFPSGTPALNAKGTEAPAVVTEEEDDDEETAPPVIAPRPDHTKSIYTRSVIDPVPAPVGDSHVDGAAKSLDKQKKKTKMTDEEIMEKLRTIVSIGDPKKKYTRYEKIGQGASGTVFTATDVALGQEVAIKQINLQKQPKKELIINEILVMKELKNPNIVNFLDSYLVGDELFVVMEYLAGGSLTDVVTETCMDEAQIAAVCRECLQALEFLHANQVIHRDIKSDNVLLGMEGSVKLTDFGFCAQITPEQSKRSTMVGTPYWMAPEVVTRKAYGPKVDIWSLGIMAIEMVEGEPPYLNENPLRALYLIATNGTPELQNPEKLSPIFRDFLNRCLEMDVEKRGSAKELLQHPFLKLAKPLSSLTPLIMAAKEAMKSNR

PIM1 (human) = PIM1 (human) (UniProt P11309)
Chain of PIM1 (human) (P11309 whole entry, looked up): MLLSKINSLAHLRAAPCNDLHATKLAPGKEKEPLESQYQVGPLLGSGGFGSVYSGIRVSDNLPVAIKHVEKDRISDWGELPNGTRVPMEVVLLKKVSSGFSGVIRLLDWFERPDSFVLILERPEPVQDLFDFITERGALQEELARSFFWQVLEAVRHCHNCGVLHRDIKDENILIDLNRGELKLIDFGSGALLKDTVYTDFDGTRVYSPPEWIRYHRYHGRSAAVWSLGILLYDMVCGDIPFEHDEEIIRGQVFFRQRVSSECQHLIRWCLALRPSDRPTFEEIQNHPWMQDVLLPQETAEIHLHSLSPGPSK

PRKCB1 (human) = PRKCB1 (human) (UniProt P05771)
PRKG2 (human) = PRKG2 (human) (UniProt Q13237)
PRKX (human) = PRKX (human) (UniProt P51817)
PTK2 (human) = PTK2 (human) (UniProt Q05397)
PTK6 (human) = PTK6 (human) (UniProt Q13882)
RIPK2 (human) = RIPK2 (human) (UniProt O43353)
RPS6KA6 KD1 KD2 (human) = RPS6KA6 KD1 KD2 (human) (UniProt Q9UK32)
SLK (human) = SLK (human) (UniProt Q9H2G2)
SRPK3 (human) = SRPK3 (human) (UniProt Q9UPE1)
STK24 (human) = STK24 (human) (UniProt Q9Y6E0)
Chain of STK24 (human) (Q9Y6E0 whole entry, looked up): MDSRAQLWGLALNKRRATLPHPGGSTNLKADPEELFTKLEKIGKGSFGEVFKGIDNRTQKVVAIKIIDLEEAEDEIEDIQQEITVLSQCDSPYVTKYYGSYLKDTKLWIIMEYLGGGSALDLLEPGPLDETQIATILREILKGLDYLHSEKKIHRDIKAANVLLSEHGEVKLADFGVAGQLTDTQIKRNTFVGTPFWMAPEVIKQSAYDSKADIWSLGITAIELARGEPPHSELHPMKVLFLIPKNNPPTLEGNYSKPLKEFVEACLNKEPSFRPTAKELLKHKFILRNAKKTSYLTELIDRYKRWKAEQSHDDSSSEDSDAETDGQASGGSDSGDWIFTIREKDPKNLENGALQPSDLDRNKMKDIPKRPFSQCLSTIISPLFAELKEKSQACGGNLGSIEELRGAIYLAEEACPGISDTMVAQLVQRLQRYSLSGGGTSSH

TGFBR2 (human) = TGFBR2 (human) (UniProt P37173)
Chain of TGFBR2 (human) (P37173 whole entry, looked up): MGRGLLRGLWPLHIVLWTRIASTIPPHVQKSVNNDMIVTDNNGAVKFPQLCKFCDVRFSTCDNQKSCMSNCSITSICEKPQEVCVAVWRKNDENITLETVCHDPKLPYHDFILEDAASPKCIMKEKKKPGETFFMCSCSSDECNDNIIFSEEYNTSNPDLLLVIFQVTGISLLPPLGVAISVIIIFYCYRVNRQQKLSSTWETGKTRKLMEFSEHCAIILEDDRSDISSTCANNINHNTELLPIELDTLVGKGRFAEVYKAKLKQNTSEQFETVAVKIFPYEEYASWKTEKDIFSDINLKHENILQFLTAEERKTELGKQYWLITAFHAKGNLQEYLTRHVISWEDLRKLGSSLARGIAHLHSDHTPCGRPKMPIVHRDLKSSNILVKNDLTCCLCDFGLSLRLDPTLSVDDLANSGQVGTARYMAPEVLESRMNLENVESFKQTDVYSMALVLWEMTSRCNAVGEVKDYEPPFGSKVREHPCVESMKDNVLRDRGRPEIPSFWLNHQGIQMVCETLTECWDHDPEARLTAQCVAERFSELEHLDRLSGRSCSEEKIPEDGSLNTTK

TTK (human) = TTK (human) (UniProt P33981)

Chain of CAMK4 (human) (Q16566 whole entry, looked up): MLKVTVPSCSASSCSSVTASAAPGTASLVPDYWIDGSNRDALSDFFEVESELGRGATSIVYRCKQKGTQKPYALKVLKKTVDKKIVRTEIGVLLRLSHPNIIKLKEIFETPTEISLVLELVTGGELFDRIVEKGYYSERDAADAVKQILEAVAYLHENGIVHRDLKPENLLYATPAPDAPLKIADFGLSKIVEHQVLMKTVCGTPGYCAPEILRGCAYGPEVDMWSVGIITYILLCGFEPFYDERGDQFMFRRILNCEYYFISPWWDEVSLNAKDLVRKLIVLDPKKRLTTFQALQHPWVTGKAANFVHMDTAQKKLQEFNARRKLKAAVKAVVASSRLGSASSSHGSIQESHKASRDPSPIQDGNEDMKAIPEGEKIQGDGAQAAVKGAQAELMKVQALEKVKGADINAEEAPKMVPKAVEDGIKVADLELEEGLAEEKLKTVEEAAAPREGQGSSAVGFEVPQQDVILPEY
Chain of ADRBK2 (human) (P35626 whole entry, looked up): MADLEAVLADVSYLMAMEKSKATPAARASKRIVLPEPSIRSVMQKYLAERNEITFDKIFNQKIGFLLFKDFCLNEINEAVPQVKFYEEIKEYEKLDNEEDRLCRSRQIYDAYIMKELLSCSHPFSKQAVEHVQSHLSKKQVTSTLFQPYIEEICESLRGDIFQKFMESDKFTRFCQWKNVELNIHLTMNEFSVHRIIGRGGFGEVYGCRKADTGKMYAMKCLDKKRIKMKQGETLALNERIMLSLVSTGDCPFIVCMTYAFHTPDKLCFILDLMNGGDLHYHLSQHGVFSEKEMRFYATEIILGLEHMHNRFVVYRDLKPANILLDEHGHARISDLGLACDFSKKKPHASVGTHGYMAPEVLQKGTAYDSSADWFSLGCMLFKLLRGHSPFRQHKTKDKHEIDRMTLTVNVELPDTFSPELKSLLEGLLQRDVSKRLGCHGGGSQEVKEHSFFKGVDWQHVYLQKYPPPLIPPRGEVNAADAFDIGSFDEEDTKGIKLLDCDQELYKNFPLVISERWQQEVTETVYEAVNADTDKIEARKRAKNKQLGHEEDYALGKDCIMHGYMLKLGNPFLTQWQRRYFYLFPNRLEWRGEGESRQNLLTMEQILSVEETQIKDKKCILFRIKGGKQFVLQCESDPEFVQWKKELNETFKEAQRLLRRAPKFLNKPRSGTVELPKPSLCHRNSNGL

Cc1ccc(S(=O)(=O)/C=C/C#N)cc1
residual activity (ADRBK2 (human)): 99.1% | residual activity (CAMK2A (human)): 103% | residual activity (CAMK2G (human)): 103% | residual activity (CAMK4 (human)): 96.4% | residual activity (CDC42BPB (human)): 96.4% | residual activity (CSNK1G2 (human)): 98.6% | residual activity (DYRK3 (human)): 101% | residual activity (EPHA2 (human)): 105% | residual activity (EPHA3 (human)): 95% | residual activity (EPHA8 (human)): 96.8% | residual activity (FGFR1 (human)): 106% | residual activity (FYN (human)): 95.4% | residual activity (HCK (human)): 100% | residual activity (IKBKE (human)): 101% | residual activity (INSR (human)): 108% | residual activity (MAP4K5 (human)): 97.8% | residual activity (MAPK9 (human)): 102% | residual activity (MARK1 (human)): 102% | residual activity (MATK (human)): 101% | residual activity (MET (human)): 94.7% | residual activity (MST4 (human)): 90.7% | residual activity (MUSK (human)): 107% | residual activity (NEK1 (human)): 92.3% | residual activity (NEK6 (human)): 108% | residual activity (NEK7 (human)): 93.4% | residual activity (NTRK3 (human)): 95.5% | residual activity (NUAK2 (human)): 88.4% | residual activity (OXSR1 (human)): 103% | residual activity (PAK2 (human)): 102% | residual activity (PIM1 (human)): 101% | residual activity (PRKCB1 (human)): 101% | residual activity (PRKG2 (human)): 102% | residual activity (PRKX (human)): 102% | residual activity (PTK2 (human)): 104% | residual activity (PTK6 (human)): 93.1% | residual activity (RIPK2 (human)): 93.8% | residual activity (RPS6KA6 KD1 KD2 (human)): 95.4% | residual activity (SLK (human)): 101% | residual activity (SRPK3 (human)): 104% | residual activity (STK24 (human)): 89.3% | residual activity (TGFBR2 (human)): 97.9% | residual activity (TTK (human)): 107%

CCOC(=O)c1c(C)[nH]c(/C=C2\C(=O)Nc3ccccc32)c1C
residual activity (ADRBK2 (human)): 94.7% | residual activity (CAMK2A (human)): 96.8% | residual activity (CAMK2G (human)): 97.6% | residual activity (CAMK4 (human)): 97.7% | residual activity (CDC42BPB (human)): 110% | residual activity (CSNK1G2 (human)): 84.8% | residual activity (DYRK3 (human)): 102% | residual activity (EPHA2 (human)): 105% | residual activity (EPHA3 (human)): 96.3% | residual activity (EPHA8 (human)): 88.7% | residual activity (FGFR1 (human)): 78.6% | residual activity (FYN (human)): 97.3% | residual activity (HCK (human)): 92.6% | residual activity (IKBKE (human)): 93.5% | residual activity (INSR (human)): 90.6% | residual activity (MAP4K5 (human)): 84.3% | residual activity (MAPK9 (human)): 93.9% | residual activity (MARK1 (human)): 90.8% | residual activity (MATK (human)): 101% | residual activity (MET (human)): 87.4% | residual activity (MST4 (human)): 101% | residual activity (MUSK (human)): 88.7% | residual activity (NEK1 (human)): 92.5% | residual activity (NEK6 (human)): 98.1% | residual activity (NEK7 (human)): 102% | residual activity (NTRK3 (human)): 27.9% | residual activity (NUAK2 (human)): 128% | residual activity (OXSR1 (human)): 87.9% | residual activity (PAK2 (human)): 92.5% | residual activity (PIM1 (human)): 95.8% | residual activity (PRKCB1 (human)): 103% | residual activity (PRKG2 (human)): 78.9% | residual activity (PRKX (human)): 94.8% | residual activity (PTK2 (human)): 93% | residual activity (PTK6 (human)): 82.8% | residual activity (RIPK2 (human)): 88.3% | residual activity (RPS6KA6 KD1 KD2 (human)): 87.6% | residual activity (SLK (human)): 89.8% | residual activity (SRPK3 (human)): 88.8% | residual activity (STK24 (human)): 82.5% | residual activity (TGFBR2 (human)): 101% | residual activity (TTK (human)): 96.6%

Nc1cccc(-c2cc3c(Oc4cccc(O)c4)ncnc3[nH]2)c1
residual activity (ADRBK2 (human)): 101% | residual activity (CAMK2A (human)): 115% | residual activity (CAMK2G (human)): 105% | residual activity (CAMK4 (human)): 94.9% | residual activity (CDC42BPB (human)): 93.5% | residual activity (CSNK1G2 (human)): 84.9% | residual activity (DYRK3 (human)): 89.8% | residual activity (EPHA2 (human)): 48.2% | residual activity (EPHA3 (human)): 39.7% | residual activity (EPHA8 (human)): 57.5% | residual activity (FGFR1 (human)): 39.3% | residual activity (FYN (human)): 7.92% | residual activity (HCK (human)): 6.65% | residual activity (IKBKE (human)): 88.1% | residual activity (INSR (human)): 93.7% | residual activity (MAP4K5 (human)): 18.4% | residual activity (MAPK9 (human)): 111% | residual activity (MARK1 (human)): 83% | residual activity (MATK (human)): 97.8% | residual activity (MET (human)): 110% | residual activity (MST4 (human)): 83.8% | residual activity (MUSK (human)): 62.8% | residual activity (NEK1 (human)): 92.3% | residual activity (NEK6 (human)): 90.2% | residual activity (NEK7 (human)): 99.4% | residual activity (NTRK3 (human)): 63.3% | residual activity (NUAK2 (human)): 90.3% | residual activity (OXSR1 (human)): 119% | residual activity (PAK2 (human)): 88.9% | residual activity (PIM1 (human)): 85.9% | residual activity (PRKCB1 (human)): 113% | residual activity (PRKG2 (human)): 108% | residual activity (PRKX (human)): 114% | residual activity (PTK2 (human)): 88.4% | residual activity (PTK6 (human)): 11.1% | residual activity (RIPK2 (human)): 30.5% | residual activity (RPS6KA6 KD1 KD2 (human)): 95.4% | residual activity (SLK (human)): 64.1% | residual activity (SRPK3 (human)): 101% | residual activity (STK24 (human)): 64.2% | residual activity (TGFBR2 (human)): 42.6% | residual activity (TTK (human)): 104%
